Structures can show the parent of a compound that is named as a salt. One block for each molecule: values may come before it.
Key:
[1] = Viscosity of saturated or unsaturated aqueous solutions of APIs, rotational viscometer (Brooksfield); format: physicochemical
Description: The viscosities of saturated aqueous solutions or aqueous solutions with different weight percentage are measured with Rotational viscometers (Brooksfield, USA) at constant temperature 25° C., and the rotation speed is 5-100 rpm.
(§1) The viscosities of saturated aqueous solutions or aqueous solutions with different weight percentage of the compounds are measured with Rotational viscometers (Brooksfield, USA) at 25° C.

[2] = Tablet-forming ability of APIs (self-granulation with water, hardness and friability of tablets); format: physicochemical; settings: tablets of 99% API and 1% magnesium stearate, about 100 mg; for The tablet-forming ability Hardness of tablets (kp): wet granulated with purified water
Description: as §1
Each API listed in Table 1-1 is separately weighed […] and wet granulated in a high shear mixer using purified water. The wet granules are dried in an oven and sieved with 20 mesh screen. Each of the dried granules is separately transferred into a V-blender, and mixed with 5 g of magnesium stearate. The obtained mixture is compressed into tablets. Every tablet weighs about 100 mg, and contains magnesium stearate and an individual API.

[3] = prior art formulation with lactose, microcrystalline cellulose, crospovidone, magnesium stearate; cited from earlier work

Compound: NS(=O)(=O)c1cc2c(cc1Cl)NCNS2(=O)=O [Hydrochlorothiazide]
Saturated aqueous solution at 25° C. Viscosity (cP) [1]: ~1 cP

Compound: Cc1ccc(NC(=O)c2ccc(CN3CCN(C)CC3)cc2)cc1Nc1nccc(-c2cccnc2)n1 [Imatinib mesylate]
Unsaturated aqueous solution at 25° C. Viscosity (cP) ([1]; weight percent 25%): ~15 cP | Saturated aqueous solution at 25° C. Viscosity (cP) [1]: ~1100 cP | The tablet-forming ability Friability of tablets (%) [2]: <0.1% | The tablet-forming ability Hardness of tablets (kp) [2]: 3-8 kp

Compound: CCN1CCCC1CNC(=O)c1cc(S(N)(=O)=O)ccc1OC (stereo not shown) [Sulpiride]
Saturated aqueous solution at 25° C. Viscosity (cP) [1]: ~2 cP

Now from value to molecule, other results behind:

Unsaturated aqueous solution at 25° C. Viscosity (cP) ([1]; weight percent 30%): ~10 cP | Saturated aqueous solution at 25° C. Viscosity (cP) [1]: ~170 cP | The tablet-forming ability Friability of tablets (%) [2]: <0.1% | The tablet-forming ability Hardness of tablets (kp) [2]: 3-8 kp
Compound: COc1cc2nc(N(C)CCCNC(=O)C3CCCO3)nc(N)c2cc1OC (stereo not shown) [Alfuzosin HCl]

Saturated aqueous solution at 25° C. Viscosity (cP) [1]: ~2 cP
Compound: CN(C)C(=N)N=C(N)N [Metformin HCl]

Unsaturated aqueous solution at 25° C. Viscosity (cP) ([1]; weight percent 10%): ~12 cP | Saturated aqueous solution at 25° C. Viscosity (cP) [1]: ~540 cP | The tablet-forming ability Friability of tablets (%) [2]: <0.1% | The tablet-forming ability Hardness of tablets (kp) [2]: 3-8 kp
Compound: CCCCCCCCOc1ccccc1C(=O)Nc1ccc(C(=O)OCC[N+](C)(CC)CC)cc1 [Otilonium bromide]
drug dissolved in 5 minutes in vitro [3]: more than 90%

Reference: US20150359795A1, “HIGH DRUG LOAD PHARMACEUTICAL COMPOSITIONS WITH CONTROLLABLE RELEASE RATE AND PRODUCTION METHODS THEREOF” (Pharmosa Limited, priority 2014, published 2015)
